These are literature values, as cited in patent US20250262218A1, “COMPOSITIONS, FORMULATIONS AND METHODS FOR STIMULATING RESPIRATION” (Auros Pharma LLC, priority 2024, published 2025).

Where two headings read alike, the source gives them in different places.

Regarding `CCN1CC(CCN2CCOCC2)C(c2ccccc2)(c2ccccc2)C1=O` (stereo not shown) [doxapram, 1-ethyl-4-(2-morpholinoethyl)-3,3-diphenyl-2-pyrrolidinone], the solubility result by setting is: (in alcohol) “sparingly soluble”; (in ether) “practically insoluble”; (in water) “soluble”. Further, where the note is “light and air”, the stability entry was “stable in light and air”.
